The record followed here is patent US7956196B2, “1,3-dihydro-benzimidazol-2-ylidene amines as inhibitors of respiratory syncytial virus replication” (Tibotec Pharmaceuticals Ltd., priority 2005, dated 2011).

Data set [1] concerns Respiratory Syncytial Virus. Put plainly: In vitro screening for activity against RSV, automated tetrazolium-based (MTT) colorimetric assay in HeLa cells. Type of data set: cell-based. Particulars: human respiratory syncytial virus, 168 h, read-out: pIC50 (converted). The text has this: In vitro screening of compounds of formula (I) for activity against RSV. The percent protection against cytopathology caused by viruses (antiviral activity or EC50) achieved by tested compounds and their cytotoxicity (CC50) are both calculated from dose-response curves. The selectivity of the antiviral effect is represented by the selectivity index (SI), calculated by dividing the CC50 (cytotoxic dose for 50% of the cells) by the EC50 (antiviral activity for 50% of the cells). The tables in the above experimental part list the category to which each of the prepared compounds belong: Compounds belonging to activity category “A” have a pEC50 (-log of EC50 when expressed in molar units) equal to or more than 7. Compounds belonging to activity category “B” have a pEC50 value between 6 and 7.
Automated tetrazolium-based colorimetric assays were used for determination of EC50 and CC50 of test compounds. Flat-bottom, 96-well plastic microtiter trays were filled with 180 μl of Eagle's Basal Medium, supplemented with 5% FCS (0% for FLU) and 20 mM Hepes buffer. Subsequently, stock solutions (7.8×final test concentration) of compounds were added in 45 μl volumes to a series of triplicate wells so as to allow simultaneous evaluation of their effects on virus- and mock-infected cells. Five five-fold dilutions were made directly in the microtiter trays using a robot system. Untreated virus controls, and HeLa cell controls were included in each test. Approximately 100 TCID50 of Respiratory Syncytial Virus was added to two of the three rows in a volume of 50 μl. The same volume of medium was added to the third row to measure the cytotoxicity of the compounds at the same concentrations as those used to measure the antiviral activity. After two hours of incubation, a suspension (4×10^5 cells/ml) of HeLa cells was added to all wells in a volume of 50 μl. The cultures were incubated at 37° C. in a 5% CO2 atmosphere. Seven days after infection the cytotoxicity and the antiviral activity was examined spectrophotometrically. To each well of the microtiter tray, 25 μl of a solution of MTT (3-(4,5-dimethylthiazol-2-yl)-2,5-diphenyltetrazolium bromide) was added. The trays were further incubated at 37° C. for 2 hours, after which the medium was removed from each cup. Solubilization of the formazan crystals was achieved by adding 100 μl 2-propanol. Complete dissolution of the formazan crystals were obtained after the trays have been placed on a plate shaker for 10 min. Finally, the absorbances were read in an eight-channel computer-controlled photometer (Multiskan MCC, Flow Laboratories) at two wavelengths (540 and 690 nm). The absorbance measured at 690 nm was automatically subtracted from the absorbance at 540 nm, so as to eliminate the effects of non-specific absorption.
The percent protection against cytopathology caused by viruses (antiviral activity or EC50) achieved by tested compounds and their cytotoxicity (CC50) were both calculated from dose-response curves. The selectivity of the antiviral effect is represented by the selectivity index (SI), calculated by dividing the CC50 (cytotoxic dose for 50% of the cells) by the EC50 (antiviral activity for 50% of the cells).

The mark [2] stands for this setting: protection against RSV cytopathology in HeLa cells, MTT readout seven days after infection.

Structures are written as SMILES. Like-named read-outs stand apart in the source and are kept apart here.

As usually defined, the melting point is the temperature of the solid-liquid transition. `COC(=O)c1ccc(Cn2c(=NC(=O)c3ccc(Br)cc3)n(Cc3cccc4cccnc34)c3ccccc32)cc1` [Compound 40]: the melting point is 131 °C. In addition, the IC50 in data set [1] (setting [2]) was more than 100000 nM.

Compound `COc1ccc(C(=O)Cn2c(=NCCc3ccc(Br)cc3)n(Cc3cccc4cccnc34)c3ccccc32)cc1` [Compound 50] displayed a melting point of 152 °C. Besides, the IC50 in data set [1] (setting [2]) is 316 nM.

`Cc1ccc(CCCO)c(NCc2ccc3c(c2)n(Cc2nc(C)ccc2O)c(=N)n3C)c1` [Compound 58] registered a melting point of 195 °C. Also, the IC50 in data set [1] (setting [2]) was 3.16 nM.

Consider `Cc1cc(C)cc(CN=c2n(Cc3ccc(C#N)cc3)c3ccccc3n2Cc2cccc3cccnc23)c1` [Compound 16], for which the melting point was found to be 142 °C. Moreover, in data set [1] (HeLa), the IC50 is 251 nM.

Consider `N#Cc1ccc(Cn2c(=NC(=O)c3ccc(Cl)cc3)n(Cc3cccc4cccnc34)c3ccccc32)cc1` [Compound 21], for which the melting point is 154 °C. For the same compound, the IC50 in data set [1] (setting [2]) was 398 nM.

`COC(=O)c1ccc(Cn2c(=NCCc3cccc(F)c3)n(Cc3cccc4cccnc34)c3ccccc32)cc1` [Compound 36] yielded a melting point of 89 °C. In data set [1] (setting [2]), the IC50 was 79.4 nM.

On to `COc1ccc(Cn2c(=NCCc3ccc(Br)cc3)n(Cc3cccc4cccnc34)c3ccccc32)cc1` [Compound 44], for which the melting point stood at 87 °C. Also, the IC50 in data set [1] (setting [2]) was 79.4 nM.

`N#Cc1ccc(Cn2c(=NCCc3ccc(O)cc3)n(Cc3cccc4cccnc34)c3ccccc32)cc1` [Compound 4] registered a melting point of 160 °C. In addition, in data set [1] (setting [2]), the IC50 was 12.6 nM.

In turn, `N#Cc1ccc(Cn2c(=NC(=O)c3ccc(C#N)cc3)n(Cc3cccc4cccnc34)c3ccccc32)cc1` [Compound 31] returned a melting point of 182 °C. Also, the IC50 in data set [1] (setting [2]) is more than 100000 nM.
